According to patent US12377110B2, “Fospropofol methods and compositions” (Epalex Corporation, priority 2019, dated 2025):

Assays:
[1] = Study A16 Part 1: PK of single ascending oral doses of fospropofol disodium (200 to 2000 mg), fasted healthy adults; assay type: in vivo, human; conditions: for AUC(0-inf) / Cmax / Tmax / AUC(0-t) / half-life: both sexes, human, plasma
Experimental: Part 1 of Study A16 was a double-blind, randomized, placebo-controlled study to investigate the safety-tolerability and PK of oral administration of single ascending doses of fospropofol disodium to healthy adult male and female volunteers.
Subjects were healthy adults (age 18-55 years inclusive, BMI 18-29.9 kg/m^2). Separate cohorts of 12 subjects each were randomized to receive fospropofol disodium at doses of 200, 400, 800, 1000, 1200, 1600, or 2000 mg (n=10 per cohort) or matching placebo (n=2 per cohort).
Subjects were admitted to the clinical unit for an overnight fast (Day −1), administered study drug on Day 1, and remained in the clinical unit until Day 2.
Fospropofol disodium was formulated as powder in an HPMC capsule, each capsule containing 200 mg of fospropofol disodium (weight adjusted for water content). Placebo was administered as an appropriate number of matching capsules.
Based on PK results from the early cohorts, sampling times were optimized beginning with Cohort 3 (800 mg) to preclose, 5, 10, 15, 20, 25, 30, 37, and 45, minutes and 1, 2, 4, 6, and 9 hours after closing.

[2] = Study A16 Part 2: PK of a single dose of 1200 mg fospropofol disodium following a high-fat meal; assay type: in vivo, human
Experimental: Part 2 of Study A16 was a double-blind, placebo-controlled, single-close pilot study to investigate the PK, safety, and tolerability of 1200 mg of fospropofol disodium administered to healthy adult men and women following a high-fat meal.
Subjects were healthy adults (age 18-55 years inclusive, BMI 18-29.9 kg/m^2). A separate cohort of 15 subjects was randomly assigned to receive a single oral dose of either fospropofol disodium (n=12) or matching placebo (n=3) within 30 minutes (±1 minute) after the start of a standardized high-fat meal.
Subjects were admitted to the clinical unit for an overnight fast (Day −1), administered study drug on Day 1 within 30 minutes of the start a standardized high-fat meal, and remained in the clinical unit until Day 2.
Fospropofol disodium was formulated as powder in 6 HPMC capsules, each capsule containing 200 mg of fospropofol disodium (weight adjusted for water content). Placebo was administered as 6 matching capsules.

[3] = 200, 400, 800, and 1000 mg cohorts
[4] = oral fospropofol disodium 200 mg, mean
[5] = oral fospropofol disodium 400 mg, mean
[6] = oral fospropofol disodium 800 mg, mean
[7] = oral fospropofol disodium 1000 mg, mean, n = 9
[8] = oral fospropofol disodium 1600 mg, mean
[9] = oral fospropofol disodium 2000 mg, mean

## CC(C)c1cccc(C(C)C)c1O [propofol, 2,6-diisopropylphenol]
[1]; 200 mg to 2000 mg
  Dose proportionality of propofol AUC0-2h and Cmax: close proportional
  Dose proportionality of propofol AUC0-T and AUC0-∞: slightly greater than close-proportional
[1]; [3]
  Highest observed propofol Cmax relative to the mean Cmax of the cohort: greater than 2 times
  Highest observed propofol Cmax: standard deviations above the cohort mean: greater than 2 standard deviations
[1]; 200 to 2000 mg, preliminary PK data
  Dose proportionality of propofol exposure (both Cmax and AUC): approximately close proportional
[1]; 800-mg cohort
  Highest observed propofol Cmax relative to mean Cmax: approximately 3.7 fold
[1]; oral, 200 mg, Propofol AUC0-inf (arithmetic mean, n=10), after a single 200-mg capsule
  AUC(0-inf): 118 ng·h/mL
[1]; oral, 200 mg, Propofol AUC0-inf (geometric mean, n=10), after a single 200-mg capsule
  AUC(0-inf): 112 ng·h/mL
[1]; oral, 200 mg, Propofol Cmax (arithmetic mean, n=10), after a single 200-mg capsule
  Cmax: 69.4 ng/mL
[1]; oral, 200 mg, Propofol Cmax (geometric mean, n=10), after a single 200-mg capsule
  Cmax: 61.7 ng/mL
[1]; oral, 200 mg, Propofol median Tmax, 200-mg dose
  Tmax: 30 min
[1]; oral, 800 mg, Highest observed propofol Cmax, 800-mg cohort
  Cmax: 1350 ng/mL
[1]; oral, 800 mg, Mean propofol Cmax, 800 mg cohort
  Cmax: 362 ng/mL
[1]; oral, 800 mg, Propofol AUC0-inf (arithmetic mean, n=10), single dose of 800 mg (four 200 mg capsules)
  AUC(0-inf): 559 ng·h/mL
[1]; oral, 800 mg, Propofol Cmax (arithmetic mean, n=10), single dose of 800 mg (four 200 mg capsules)
  Cmax: 362 ng/mL
[1]; oral, 1200 mg, Propofol Tmax (median), fasting conditions
  Tmax: 37 min
[1]; oral, 2000 mg, Propofol median Tmax, doses of 1600 or 2000 mg
  Tmax: 45 min
[1]; po, 200 mg, Propofol AUC0-∞, oral fospropofol disodium 200 mg, mean
  AUC(0-inf): 118 ng·h/mL
[1]; po, 200 mg, Propofol Cmax Maximum, oral fospropofol disodium 200 mg
  Cmax: 191 ng/mL
[1]; po, 200 mg, Propofol Cmax Mean (SD), oral fospropofol disodium 200 mg
  Cmax: 69 ng/mL
[1]; po, 200 mg, Propofol Cmax Minimum, oral fospropofol disodium 200 mg
  Cmax: 35.1 ng/mL
[1]; po, 200 mg, Propofol Cmax, oral fospropofol disodium 200 mg, mean
  Cmax: 69 ng/mL
[1]; po, 200 mg, Propofol Tmax, oral fospropofol disodium 200 mg, median
  Tmax: 30 min
[1]; po, 400 mg, Propofol AUC0-∞, oral fospropofol disodium 400 mg, mean
  AUC(0-inf): 298 ng·h/mL
[1]; po, 400 mg, Propofol Cmax Maximum, oral fospropofol disodium 400 mg
  Cmax: 499 ng/mL
[1]; po, 400 mg, Propofol Cmax Mean (SD), oral fospropofol disodium 400 mg
  Cmax: 201 ng/mL
[1]; po, 400 mg, Propofol Cmax Minimum, oral fospropofol disodium 400 mg
  Cmax: 33.5 ng/mL
[1]; po, 400 mg, Propofol Cmax, oral fospropofol disodium 400 mg, mean
  Cmax: 201 ng/mL
[1]; po, 400 mg, Propofol Tmax, oral fospropofol disodium 400 mg, median
  Tmax: 30 min
[1]; po, 800 mg, Propofol AUC0-∞, oral fospropofol disodium 800 mg, mean
  AUC(0-inf): 577 ng·h/mL
[1]; po, 800 mg, Propofol Cmax Maximum, oral fospropofol disodium 800 mg
  Cmax: 1350 ng/mL
[1]; po, 800 mg, Propofol Cmax Mean (SD), oral fospropofol disodium 800 mg
  Cmax: 362 ng/mL
[1]; po, 800 mg, Propofol Cmax Minimum, oral fospropofol disodium 800 mg
  Cmax: 127 ng/mL
[1]; po, 800 mg, Propofol Cmax, oral fospropofol disodium 800 mg, mean
  Cmax: 362 ng/mL
[1]; po, 800 mg, Propofol Tmax, oral fospropofol disodium 800 mg, median
  Tmax: 37.2 min
[1]; po, 1000 mg, Propofol AUC0-∞, oral fospropofol disodium 1000 mg, mean, n = 9
  AUC(0-inf): 887 ng·h/mL
[1]; po, 1000 mg, Propofol Cmax Maximum, oral fospropofol disodium 1000 mg, n = 9
  Cmax: 681 ng/mL
[1]; po, 1000 mg, Propofol Cmax Mean (SD), oral fospropofol disodium 1000 mg, n = 9
  Cmax: 403 ng/mL
[1]; po, 1000 mg, Propofol Cmax Minimum, oral fospropofol disodium 1000 mg, n = 9
  Cmax: 267 ng/mL
[1]; po, 1000 mg, Propofol Cmax, oral fospropofol disodium 1000 mg, mean, n = 9
  Cmax: 403 ng/mL
[1]; po, 1000 mg, Propofol Tmax, oral fospropofol disodium 1000 mg, median, n = 9
  Tmax: 45 min
[1]; po, 1200 mg, Propofol Cmax Maximum, oral fospropofol disodium 1200 mg
  Cmax: 1190 ng/mL
[1]; po, 1200 mg, Propofol Cmax Mean (SD), oral fospropofol disodium 1200 mg
  Cmax: 641 ng/mL
[1]; po, 1200 mg, Propofol Cmax Minimum, oral fospropofol disodium 1200 mg
  Cmax: 193 ng/mL
[1]; po, 1600 mg, Propofol Cmax Maximum, oral fospropofol disodium 1600 mg
  Cmax: 1170 ng/mL
[1]; po, 1600 mg, Propofol Cmax Mean (SD), oral fospropofol disodium 1600 mg
  Cmax: 748 ng/mL
[1]; po, 1600 mg, Propofol Cmax Minimum, oral fospropofol disodium 1600 mg
  Cmax: 229 ng/mL
[1]; po, 2000 mg, Propofol AUC0-∞, oral fospropofol disodium 2000 mg, mean
  AUC(0-inf): 2250 ng·h/mL
[1]; po, 2000 mg, Propofol Cmax Maximum, oral fospropofol disodium 2000 mg
  Cmax: 1620 ng/mL
[1]; po, 2000 mg, Propofol Cmax Mean (SD), oral fospropofol disodium 2000 mg
  Cmax: 806 ng/mL
[1]; po, 2000 mg, Propofol Cmax Minimum, oral fospropofol disodium 2000 mg
  Cmax: 200 ng/mL
[1]; po, 2000 mg, Propofol Cmax, oral fospropofol disodium 2000 mg, mean
  Cmax: 806 ng/mL
[1]; po, 2000 mg, Propofol Tmax, oral fospropofol disodium 2000 mg, median
  Tmax: 45 min
[1]; [4]
  AUC(0-t): 103 ng·h/mL
  half-life: 228 min
  Propofol CL/F: 1889 L/h
[1]; [5]
  AUC(0-t): 276 ng·h/mL
  half-life: 176 min
  Propofol CL/F: 1658 L/h
[1]; [6]
  AUC(0-t): 551 ng·h/mL
  half-life: 116 min
  Propofol CL/F: 1561 L/h
[1]; [7]
  AUC(0-t): 846 ng·h/mL
  half-life: 121 min
  Propofol CL/F: 1213 L/h
[1]; [8]
  half-life: 177 min
  Propofol CL/F: 1182 L/h
[1]; [9]
  AUC(0-t): 2000 ng·h/mL
  half-life: 118 min
  Propofol CL/F: 933 L/h
[1]; by 4 hours after dosing
  Propofol concentration relative to Cmax: less than 25 % of Cmax
[1]; oral fospropofol disodium 200 mg
  Propofol Cmax CV: 64%
[1]; oral fospropofol disodium 400 mg
  Propofol Cmax CV: 63%
[1]; oral fospropofol disodium 800 mg
  Propofol Cmax CV: 99%
[1]; oral fospropofol disodium 1000 mg, n = 9
  Propofol Cmax CV: 30%
[1]; oral fospropofol disodium 1200 mg
  Propofol Cmax CV: 46%
[1]; oral fospropofol disodium 1200 mg, Fasted (Cohort 5), n = 10, mean
  Propofol CL/F: 1260 L/h
[1]; oral fospropofol disodium 1200 mg, mean
  Propofol CL/F: 1260 L/h
[1]; oral fospropofol disodium 1600 mg
  Propofol Cmax CV: 44%
[1]; oral fospropofol disodium 2000 mg
  Propofol Cmax CV: 51%
[2]; 1200 mg
  Propofol mean AUC following a high-fat meal relative to fasting: approximately 40%
  Propofol mean Cmax under fed conditions relative to fasting: approximately 19%
[2]; 1200 mg within 30 minutes after the start of a high-fat meal
  Effect of high-fat meal on exposure: significant reduction in exposure
[2]; both sexes, human, plasma, oral, 1200 mg, after a high-fat meal
  Tmax: 120 min
[2]; oral fospropofol disodium 1200 mg, Fed (Cohort 8), n = 7/12, mean
  Propofol CL/F: 3111 L/h

## CC(C)c1cccc(C(C)C)c1OCOP(=O)([O-])O.[Na+] [fospropofol disodium]
[1]; single dose of 800 mg (four 200 mg capsules)
  Tolerability of propofol exposures: well-tolerated
